The record followed here is PMC7411887, “New Paracyclophanylthiazoles with Anti-Leukemia Activity: Design, Synthesis, Molecular Docking, and Mechanistic Studies” (Molecules, 2020).

In general, inhibition refers to the change of the read-out against control, counted positive when it falls. In general, IC50 refers to the concentration needed to halve the response being measured. Higher therefore signals a need for much substance. A word on the melting point: it is the temperature, or range, at which the solid turns liquid.

One data set deals with HOP-92. The data set is described as follows: NCI single-dose screen (SRB). The settings on record: Homo sapiens; Non-Small-Cell Lung Cancer HOP-92; 10^−5 M; read-out: Growth inhibition percentage. Format: cell-based. An outline of the steps: (§1)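 Read-out is percentage growth of treated cells relative to untreated controls, determined by SRB protein-dye staining and spectrophotometry. Cultures received test compound at 10^−5 M for 48 h, in three repeat experiments.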

Another data set deals with HCC-2998. Description: NCI single-dose screen (SRB). The settings on record: Homo sapiens; Colon Cancer HCC-2998; 10^−5 M; read-out: Growth inhibition percentage. Format: cell-based. An outline of the steps: as §1
In another data set the test system is CCRF-CEM. The data set is described as follows: NCI single-dose screen (SRB). Format: cell-based. The settings on record: Homo sapiens; Leukemia CCRF-CEM; 10^−5 M; read-out: Growth inhibition percentage. The essentials: as §1
Another data set concerns HCT-116. The data set is described as follows: NCI single-dose screen (SRB). Type of data set: cell-based. Particulars: Homo sapiens; Colon Cancer HCT-116; 10^−5 M; read-out: Growth inhibition percentage. An outline of the steps:
as §1

Another data set deals with IGROV1. Description: NCI single-dose screen (SRB). Type of data set: cell-based. Particulars: Homo sapiens, IGROV-1; Ovarian Cancer IGROV1; 10^−5 M; read-out: Growth inhibition percentage. An outline of the steps:
as §1

The target of another data set is T1, β-tubulin (Homo sapiens, UniProt P07437).
T1 construct: endogenous in cells; host or cells: leukemia SR cell line
T1 sequence (P07437 whole entry): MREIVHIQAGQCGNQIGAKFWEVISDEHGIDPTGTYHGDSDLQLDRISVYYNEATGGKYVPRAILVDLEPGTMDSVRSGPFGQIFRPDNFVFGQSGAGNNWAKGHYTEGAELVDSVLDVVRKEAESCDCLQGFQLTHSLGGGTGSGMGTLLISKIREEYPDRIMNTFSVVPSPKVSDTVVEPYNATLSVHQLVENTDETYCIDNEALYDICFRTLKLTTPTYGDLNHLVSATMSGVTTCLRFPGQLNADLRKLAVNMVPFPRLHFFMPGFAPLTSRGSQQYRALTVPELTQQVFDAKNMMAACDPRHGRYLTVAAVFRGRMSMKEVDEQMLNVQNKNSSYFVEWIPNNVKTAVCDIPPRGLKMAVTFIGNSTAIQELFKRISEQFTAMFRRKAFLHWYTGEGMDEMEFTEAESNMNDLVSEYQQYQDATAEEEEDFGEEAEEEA
T1 sequence (P68363 whole entry partner): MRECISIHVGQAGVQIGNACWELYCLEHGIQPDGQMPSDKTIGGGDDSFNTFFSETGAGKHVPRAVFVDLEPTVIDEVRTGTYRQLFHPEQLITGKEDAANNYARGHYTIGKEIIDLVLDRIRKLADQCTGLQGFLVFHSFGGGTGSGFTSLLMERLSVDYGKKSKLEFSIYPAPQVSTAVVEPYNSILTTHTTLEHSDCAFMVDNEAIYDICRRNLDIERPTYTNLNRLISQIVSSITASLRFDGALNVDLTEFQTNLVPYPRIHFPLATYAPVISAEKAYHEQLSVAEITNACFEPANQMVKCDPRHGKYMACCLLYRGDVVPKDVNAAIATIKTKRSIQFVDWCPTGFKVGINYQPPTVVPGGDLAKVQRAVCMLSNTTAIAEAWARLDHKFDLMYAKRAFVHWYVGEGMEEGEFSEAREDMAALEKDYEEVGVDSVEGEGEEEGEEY
Description: Tubulin polymerization inhibition (ELISA for TUBb, SR cell line). Type of data set: cell-based. Particulars: IC50 ± SEM. As to the method: The in vitro kinetics of microtubule assembly was measured using an ELISA kit for TUBb (Cloud-Clone. Corp.) on the leukemia SR cell line. The compounds tested were 3a–f and colchicine. Briefly, growing cells from the SR cell line were trypsinized, counted, and seeded at the appropriate densities into 96-well microtiter plates.
4. Tubulin polymerization inhibitory activity […]
bind the biotin labeled antibody. […]
spectrophotometrically at a wavelength of 450 nm ± 10 nm. The decrease of color intensity was measured as a sign for tubulin inhibition. The results were calculated as the concentration of TUBb available for antibody reaction, and the percent inhibition of TUBb was calculated for each sample as a percent of control. In vitro kinetics of microtubule assembly was measured using ELISA kit for TUBb (Cloud-Clone. Corp.) on SR cell line. Briefly, growing cells from Leukemia SR cell lines were trypsinized, counted and seeded at the appropriate densities into 96-well microtiter plates. Cells then were incubated in a humidified atmosphere at oC for 24 h. The standards, the tested compounds, and the control colchicine were diluted to designated concentrations. On the 96-well microtiter plates standard or sample was added to each well in […] and incubated at oC for 2 h. The solution was aspirated, and […] of prepared detection reagent A was added to each well. Incubation was done at oC for 2 h. After washing […] of prepared Detection Reagent B was added and incubation was continued at oC for 30 min. Five washings were done, then […] of 3,30,5,50-tetramethylbenzidine (TMB) substrate solution was added and incubated at oC for 15-25 min. Stop solution was added in […].
Optical density (O.D.) was measured at 450 nm using micro-plate reader (Spectromax Plus 96 well plate spectrophotometer). […]
the treated cells compared to that of the untreated control cells.
5. Multidrug resistance Assay
Before adding to wells, equilibrate the SABC working solution and TMB substrate for at least 30 […]
When diluting samples and reagents, they must be mixed completely and evenly. It is recommended plotting a standard curve for each test.
Background: In an ELISA, binding on a coated surface is turned into a signal by an enzyme label.

The structures appear in SMILES notation. Values joined by “and” are separate entries in the source; they are usually repeats but may differ in a detail not shown here. Equal values may be shown once.

Regarding `COC(=O)C=C1SC(=NNC(=O)c2cc3ccc2CCc2ccc(cc2)CC3)N(c2ccccc2)C1=O` [Compound 3a], the inhibition at 10 µM with HOP-92 worked out at 24.7%; with HCC-2998, 96.4%; in the data set with CCRF-CEM, 87%; with HCT-116 it was 96%; with IGROV1, 94%. 4.97 ± 0.11 µM corresponded to half-maximal inhibition at β-tubulin (IC50).

Consider `COC(=O)C=C1SC(=NNC(=O)c2cc3ccc2CCc2ccc(cc2)CC3)N(Cc2ccccc2)C1=O` [Compound 3b], for which the melting point lay within 175 to 177 °C. Also, in the data set on HOP-92, the inhibition at 10 µM stood at 24.5%. Moreover, in the data set with HCC-2998, the inhibition at 10 µM stood at 20.5%. In addition, the inhibition at 10 µM in the data set with CCRF-CEM came out at 96.2%. Further, the inhibition at 10 µM with HCT-116 stood at 50.5%. For the same molecule, the inhibition at 10 µM with IGROV1 came to 57.7%. Besides, on β-tubulin, the IC50 was 8.38 ± 0.18 µM.

As for `COC(=O)C=C1SC(=Nc2cccnc2)N(NC(=O)c2cc3ccc2CCc2ccc(cc2)CC3)C1=O` [Compound 3c, Methyl (E)-2-((E)-3-[2.2]paracyclophanyl)amido-4-oxo-2-(pyridin-3-ylimino)-thiazolidin-5-ylidene)acetate], the melting point was 262 to 264 °C (dec.). Further, the inhibition at 10 µM in the data set with HOP-92 stood at 8.14%. In the data set on HCC-2998, the inhibition at 10 µM amounted to 0%. The inhibition at 10 µM with CCRF-CEM was found to be 31.3%. Besides, the inhibition at 10 µM in the data set on HCT-116 was 6.35%. Besides, in the data set on IGROV1, the inhibition at 10 µM is 15.4%. On β-tubulin, the IC50 was 8.38 µM and 8.28 µM.

`C=CCN1C(=O)C(=CC(=O)OC)SC1=NNC(=O)c1cc2ccc1CCc1ccc(cc1)CC2` [Compound 3d]: the melting point lay within 241 to 243 °C. Moreover, the inhibition at 10 µM in the data set on HOP-92 worked out at 18.6%. In addition, the inhibition at 10 µM with HCC-2998 worked out at 0%. Moreover, the inhibition at 10 µM in the data set with CCRF-CEM stood at 77.1%. The inhibition at 10 µM in the data set with HCT-116 was 46%. The inhibition at 10 µM in the data set with IGROV1 is 10.8%. Moreover, the IC50 against β-tubulin was determined as 14.8 ± 0.32 µM.

Molecule `CCN1C(=O)C(=CC(=O)OC)SC1=NNC(=O)c1cc2ccc1CCc1ccc(cc1)CC2` [Compound 3e] returned a melting point of 220 to 222 °C. Moreover, in the data set with HOP-92, the inhibition at 10 µM turned out to be 18.4%. In the data set on HCC-2998, the inhibition at 10 µM stood at 0%. The inhibition at 10 µM in the data set with CCRF-CEM was found to be 66.1%. Moreover, in the data set on HCT-116, the inhibition at 10 µM turned out to be 50.5%. Besides, in the data set on IGROV1, the inhibition at 10 µM was determined as 11.6%. This molecule yielded a half-maximal inhibitory concentration (IC50) against β-tubulin of 6.61 ± 0.14 µM.

`COC(=O)/C=C1/S/C(=N/NC(=O)c2cc3ccc2CCc2ccc(cc2)CC3)N(C2CC2)C1=O` [Compound 3f] displayed a melting point of 180 to 182 °C. Also, the inhibition at 10 µM in the data set on HOP-92 worked out at 16.2%. The inhibition at 10 µM with HCC-2998 amounted to 0%. Besides, in the data set with CCRF-CEM, the inhibition at 10 µM was 41.4%. In addition, in the data set with HCT-116, the inhibition at 10 µM came to 24.6%. Also, in the data set with IGROV1, the inhibition at 10 µM was 7.2%.
